From US8901357B2, “Dibenzoyl peroxide derivatives, preparation method thereof and cosmetic or dermatological compositions containing same” (Galderma Research & Development, priority 2009, dated 2014)
In brackets after ≈: the same amount, converted by molar mass.

Tested on: Propionibacterium acnes
Test: Sensitivity of peroxides versus dibenzoyl peroxide on Propionibacterium acnes: MIC, dilution method in agar medium (CLSI M11A7)
Type: cell-based
Conditions: Cutibacterium acnes, 48 h
[1] = P. acnes strain 998, read after 48 hours anaerobic incubation
[2] = P. acnes strain 1044, read after 48 hours anaerobic incubation
[3] = P. acnes strain 1045, read after 48 hours anaerobic incubation
[4] = P. acnes strain 1201, read after 48 hours anaerobic incubation
[5] = P. acnes strain 3069, read after 48 hours anaerobic incubation
[6] = P. acnes strain CSS 2913, read after 48 hours anaerobic incubation
[7] = P. acnes strain CSS 2971, read after 48 hours anaerobic incubation
[8] = P. acnes strain CSS 3288, read after 48 hours anaerobic incubation
[9] = P. acnes strain UAA 2281, read after 48 hours anaerobic incubation
[10] = P. acnes strain UAA 2285, read after 48 hours anaerobic incubation

Compound	MIC [1]	MIC [2]	MIC [3]	MIC [4]	MIC [5]	MIC [6]	MIC [7]	MIC [8]	MIC [9]	MIC [10]
O=C(OOC(=O)c1ccccc1)c1ccccc1 [Benzoyl peroxide]	640 µg/mL (≈ 2640 µM)	640 µg/mL (≈ 2640 µM)	640 µg/mL (≈ 2640 µM)	640 µg/mL (≈ 2640 µM)	640 µg/mL (≈ 2640 µM)	640 µg/mL (≈ 2640 µM)	640 µg/mL (≈ 2640 µM)	640 µg/mL (≈ 2640 µM)	640 µg/mL (≈ 2640 µM)	640 µg/mL (≈ 2640 µM)
CCCCCCCC(=O)c1ccc(OC(C)=O)c(C(=O)OOC(=O)c2ccccc2)c1 [Example 1, (2-acetoxy-5-octanoylbenzoyl)benzoyl peroxide]	1280 µg/mL (≈ 3000 µM)	320 µg/mL (≈ 750 µM)	320 µg/mL (≈ 750 µM)	320 µg/mL (≈ 750 µM)	1280 µg/mL (≈ 3000 µM)	320 µg/mL (≈ 750 µM)	320 µg/mL (≈ 750 µM)	320 µg/mL (≈ 750 µM)	320 µg/mL (≈ 750 µM)	320 µg/mL (≈ 750 µM)
